Measured values taken from article PMC3524753, “SU11652 Inhibits tyrosine kinase activity of FLT3 and growth of MV-4-11 cells” (Journal of Hematology & Oncology, 2012).
Substitutions are numbered along the chain they refer to. pIC50: −log10 of the molar value.

How the values were obtained:
Assay in all cases: in vitro kinase assay with GST-FLT3S substrate, anti-phosphotyrosine immunoblot
Format in all cases: biochemical
[1] = target: T1, FLT3 (FMS-like tyrosine kinase 3) (Homo sapiens, UniProt P36888, D835Y)
T1 construct: catalytic domain of FLT3 D835Y
T1 sequence (P36888 564-993 D835Y limits assumed): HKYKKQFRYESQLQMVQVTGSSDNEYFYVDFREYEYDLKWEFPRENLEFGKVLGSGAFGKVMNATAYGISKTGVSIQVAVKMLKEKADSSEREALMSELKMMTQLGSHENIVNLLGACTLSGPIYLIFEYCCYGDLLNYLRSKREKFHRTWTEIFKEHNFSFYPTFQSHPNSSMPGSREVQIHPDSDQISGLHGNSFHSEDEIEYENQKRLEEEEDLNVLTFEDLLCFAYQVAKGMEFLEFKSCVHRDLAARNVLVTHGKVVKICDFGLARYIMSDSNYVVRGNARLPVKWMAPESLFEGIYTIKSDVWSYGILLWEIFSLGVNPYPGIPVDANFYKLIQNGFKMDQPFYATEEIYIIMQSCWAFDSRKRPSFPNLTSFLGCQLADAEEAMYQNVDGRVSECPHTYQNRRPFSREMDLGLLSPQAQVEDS

[2] = target: T2, FLT3 (FMS-like tyrosine kinase 3) (Homo sapiens, UniProt P36888, D835H)
T2 construct: catalytic domain of FLT3 D835H
T2 sequence (P36888 564-993 D835H limits assumed): T1 sequence (P36888 564-993 D835Y limits assumed) with Y272H

[3] = target: T3, FLT3 (FMS-like tyrosine kinase 3) (Homo sapiens, UniProt P36888)
T3 construct: catalytic domain of wild type FLT3
T3 sequence (P36888 564-993 limits assumed): T1 sequence (P36888 564-993 D835Y limits assumed) with Y272D

Work on `CCN(CC)CCNC(=O)c1c(C)[nH]c(/C=C2\C(=O)Nc3ccc(Cl)cc32)c1C` [SU11652] yielded a pIC50 [1] of 7.80, a pIC50 [2] of 7.49 and a pIC50 [3] of roughly 8.82.
